# Values of other authors as cited in US6413950B1, “Pharmaceutical preparation containing dithranol” (esparma GmbH, priority 1999, dated 2002).
# Conditions: background statement on the active agent dithranol
smiles,measurement,value
O=C1c2c(O)cccc2Cc2cccc(O)c21 [Dithranol],solubility in water,not soluble in water
